Laboratory results published in patent US9321750B2, “ROR modulators and their uses” (INNOV17 LLC, priority 2012, dated 2016).

Columns and labels:
IL-17A [1] = test: TH17 cytokine inhibition as measured by ELISA: IL-17A; assay type: cell-based; conditions: 120 h; human TH17 cells, 5 days differentiation, ELISA of supernatant
Protocol: (§1) Peripheral blood mononuclear cells (PBMCs) were sourced from freshly prepared leukocyte enriched plasma (buffy coat) from healthy volunteers from which PBMCs were isolated by density gradient centrifugation using Ficoll-Paque™ PLUS (GE Healthcare). Naïve CD4+ T cells were isolated using the Naïve CD4+ T cell Isolation Kit II (Miltenyi Biotec) as per manufacturer's instructions. CD4+ T cells were plated at 5×10^4 cells/well in 96 well plates pre-coated with immobilized human (h)-αCD3 antibody (eBioscience) then differentiated to TH17 cells using h-αCD28, h-αIFNγ, h-αIL4, h-IL6, h-IL23, h-IL1β, h-TGFβ1 (eBioscience) and maintained in a cell culture incubator at 37° C. with 5% CO2 in TexMACS Medium (Miltenyi Biotec) supplemented with 1% Penicillin/Streptomycin (Lonza) over 5 days.
(§2) Human CD4+ T cells were differentiated to TH17 cells as described in the presence or absence of various concentrations of compounds in a final concentration of 0.1% DMSO in TexMACS medium. Supernatants were collected and stored at −20° C. until they were to be assayed for IL-17A, IL-17F, IL-17AF, IL-21 and/or IL-22 levels as determined by Ready-Set-Go ELISA kits (eBioscience) as per manufacturer's instructions. Endpoint absorbance was read at 450 nm and 570 nm according to manufacturer's instructions (eBioscience) using a microplate reader (Perkin Elmer). The percentage of cytokine inhibition was calculated with reference to DMSO treated cells and the IC50s were determined by GraphPad Prism software and presented in the table below.

IL-17F [2] = test: TH17 cytokine inhibition as measured by ELISA: IL-17F; assay type: cell-based; conditions: 120 h; human TH17 cells, 5 days differentiation, ELISA of supernatant
Protocol: as §1, §2

IL-17AF = test: TH17 cytokine inhibition as measured by ELISA: IL-17AF; assay type: cell-based; conditions: 120 h; human TH17 cells, 5 days differentiation, ELISA of supernatant
Protocol: as §1, §2

[3] = TH17 cell viability (Prestoblue); assay type: cell-based; parameters: concentration or dose not given beside the values; conditions: human; percentage of DMSO treated cells; read-out: % viability of compound treated TH17 cells
Protocol: as §1
Cells were assayed for viability in the presence or absence of compound using Prestoblue® Cell Viability Reagent (Life Technologies) as per manufacturer's instructions after 30 minutes incubation of TH17 cells with reagent. Absorbance was measured at 570 nm and 600 nm using a microplate reader (Perkin Elmer) and data were analyzed as per manufacturer's instructions. Cell viability was expressed as a percentage of DMSO treated cells.

TH17 cells = test: TH17 cellular proliferation (Prestoblue); assay type: cell-based; conditions: Homo sapiens, 120 h; 3 μM compound, after 5 day TH17 differentiation, relative to DMSO treated TH17 cells; read-out: % change in TH17 cell number
Protocol: as §1
Cellular proliferation was assessed in the presence or absence of 3 μM compound using Prestoblue® Cell Viability Reagent (Life Technologies) as per manufacturer's instructions using absorbance as the output measured by a microplate reader (Perkin Elmer) after 30 minutes of incubation of cells and reagent. A standard curve developed by plotting varying cell numbers versus absorbance was used to assess differences in cellular proliferation between compound treated or untreated cells after the 5 day TH17 differentiation period.

RORγ LBD [4] = target: T1, RORγ LBD (Homo sapiens (Human), UniProt P51449); test: RORγ LBD binding (Human RORγ Assay System, INDIGO Biosciences); conditions: 0.5% DMSO
T1 sequence (P51449 269-508): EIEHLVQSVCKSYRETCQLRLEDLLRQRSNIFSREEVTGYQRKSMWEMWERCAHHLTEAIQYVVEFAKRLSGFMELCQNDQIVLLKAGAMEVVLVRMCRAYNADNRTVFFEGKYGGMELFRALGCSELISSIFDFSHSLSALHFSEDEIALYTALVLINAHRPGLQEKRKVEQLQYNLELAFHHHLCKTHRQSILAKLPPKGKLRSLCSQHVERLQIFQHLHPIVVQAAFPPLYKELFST
Protocol: Compound binding to the human RORγ LBD was assessed using the Human RORγ Assay System (INDIGO Biosciences Inc.) as per manufacturer's instructions.

RORγ LBD [5] = target: T1, RORγ LBD; test: TR-FRET co-activator D22 interaction with RORγ LBD; assay type: biochemical
Excerpt: (§3) The Time-Resolved Fluorescence Resonance Energy Transfer (TR-FRET) assay kit (Life Technologies) was used to measure compound efficacy to disrupt or enhance ligand-mediated interaction of the co-activator and co-repressor peptides with the purified GST-tagged (i) RORγ LBD or (ii) […]. The RORγ LBD and RORα LBD each have a basal level of interaction with the co-activator D22 or co-repressor NCoR1-D2 in the absence of ligand, thus it is possible to identify compounds that inhibit or induce RORγ and/or RORα co-activator/co-repressor interactions, thus determining RORα, RORγ, or RORα/RORγ compound selectivity. The assay was performed as per manufacturer's instructions and TR-FRET was assessed 2 and 20 hours post-assay initiation. Compounds were identified to (i) have no impact on either co-activator displacement or […] from the assessed LBD (ii) promote co-activator displacement from the assessed LBD (iii) promote co-repressor recruitment to the assessed LBD or (iv) concurrently promote co-activator displacement from the assessed LBD and co-repressor recruitment to the assessed LBD.

RORγ LBD [6] = target: T1, RORγ LBD; test: TR-FRET co-repressor NCoR1-D2 interaction with RORγ LBD; assay type: biochemical
Excerpt: as §3

RORα LBD [7] = target: T2, RORα LBD (Homo sapiens (Human), UniProt P35398); test: TR-FRET co-activator D22 interaction with RORα LBD; assay type: biochemical
T2 sequence (P35398 272-510): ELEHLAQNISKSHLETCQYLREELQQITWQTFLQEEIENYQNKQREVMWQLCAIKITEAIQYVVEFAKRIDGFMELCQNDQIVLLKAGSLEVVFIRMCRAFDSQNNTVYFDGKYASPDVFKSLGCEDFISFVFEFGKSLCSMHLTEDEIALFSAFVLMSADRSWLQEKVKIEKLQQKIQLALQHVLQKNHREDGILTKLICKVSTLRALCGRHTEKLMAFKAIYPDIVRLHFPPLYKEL
Excerpt: as §3

RORα LBD [8] = target: T2, RORα LBD; test: TR-FRET co-repressor NCoR1-D2 interaction with RORα LBD; assay type: biochemical
Excerpt: as §3

IL-22 [9] = test: TH17 cytokine inhibition as measured by ELISA: IL-22; assay type: cell-based; conditions: 120 h; human TH17 cells, 5 days differentiation, ELISA of supernatant
Protocol: as §1, §2

IL-17A [10] = test: Real-time qRT-PCR in TH17 cells: IL-17A gene expression; assay type: cell-based, human; parameters: key: A: No change in gene expression observed relative to DMSO treated Th17 cells; B: Decreased gene expression observed relative to DMSO treated Th17 cells; C: Increased gene expression observed relative to DMSO treated Th17 cells
Protocol: as §1
(§4) RNA was isolated from TH17 cells and cDNA was synthesized using the Verso cDNA kit (Thermo Scientific) as per manufacturer's instructions. IL-17A, IL-17F, IL-21, IL-22, G-CSF, IL-23R and FOXP3 gene expression were determined for compound treated and untreated TH17 cell samples using Solaris qPCR Gene expression assays (Thermo Scientific) with an iCycler iQ Real-Time PCR Detection System (Bio-Rad). Individual gene expression was normalized to a panel of six reference genes (ACTB, TBP, HPRT1, PGK1, TFRC and PPIA) (Thermo Scientific) and analyzed by REST 2009 (Qiagen) in accordance to MIQE guidelines (Bustin et al. (2009) Clin. Chem, 55:611-622). The effects of compounds on TH17 cytokine mRNA levels are presented as fold change in gene expression of compound treated TH17 cells relative to DMSO treated cells in the table below.

IL-17F [11] = test: Real-time qRT-PCR in TH17 cells: IL-17F gene expression; assay type: cell-based, human; parameters: key: A: No change in gene expression observed relative to DMSO treated Th17 cells; B: Decreased gene expression observed relative to DMSO treated Th17 cells; C: Increased gene expression observed relative to DMSO treated Th17 cells
Protocol: as §1, §4

IL-22 [12] = test: Real-time qRT-PCR in TH17 cells: IL-22 gene expression; assay type: cell-based, human; parameters: key: A: No change in gene expression observed relative to DMSO treated Th17 cells; B: Decreased gene expression observed relative to DMSO treated Th17 cells; C: Increased gene expression observed relative to DMSO treated Th17 cells
Protocol: as §1, §4

IL-21 = test: Real-time qRT-PCR in TH17 cells: IL-21 gene expression; assay type: cell-based, human; parameters: key: A: No change in gene expression observed relative to DMSO treated Th17 cells; B: Decreased gene expression observed relative to DMSO treated Th17 cells; C: Increased gene expression observed relative to DMSO treated Th17 cells
Protocol: as §1, §4

IL-23R = test: Real-time qRT-PCR in TH17 cells: IL-23R gene expression; assay type: cell-based, human; parameters: key: A: No change in gene expression observed relative to DMSO treated Th17 cells; B: Decreased gene expression observed relative to DMSO treated Th17 cells; C: Increased gene expression observed relative to DMSO treated Th17 cells
Protocol: as §1, §4

FOXP3 = test: Real-time qRT-PCR in TH17 cells: FOXP3 gene expression; assay type: cell-based, human; parameters: key: A: No change in gene expression observed relative to DMSO treated Th17 cells; B: Decreased gene expression observed relative to DMSO treated Th17 cells; C: Increased gene expression observed relative to DMSO treated Th17 cells
Protocol: as §1, §4

[13] = 2 hr, read-out: RORγ EC50 D22 co-activator displacement 2 hr
[14] = 20 hr, read-out: RORγ EC50 D22 co-activator displacement 20 hr
[15] = 2 hr, read-out: RORγ EC50 NCoR1-D2 co-repressor recruitment 2 hr
[16] = 20 hr, read-out: RORγ EC50 NCoR1-D2 co-repressor recruitment 20 hr
[17] = 2 hr, read-out: RORα EC50 D22 co-activator displacement 2 hr
[18] = 20 hr, read-out: RORα EC50 D22 co-activator displacement 20 hr
[19] = 2 hr, read-out: RORα EC50 NCoR1-D2 co-repressor recruitment 2 hr
[20] = 20 hr, read-out: RORα EC50 NCoR1-D2 co-repressor recruitment 20 hr

Structure (SMILES): CC(=O)Nc1ccc2c(c1)CCC(=O)N2Cc1ccc(C(O)(C(F)(F)F)C(F)(F)F)cc1 [Example 3, N-(1-(4-(1,1,1,3,3,3-hexafluoro-2-hydroxypropan-2-yl)benzyl)-2-oxo-1,2,3,4-tetrahydroquinolin-6-yl)acetamide]
- IC50 (IL-17A [1]): < 10 µM
- IC50 (IL-17F [2]): < 10 µM
- IC50 (IL-17AF): > 10 µM
- viability [3]: > 80%
- inhibition at 3 µM (TH17 cells): ≤ 50%
- IC50 (RORγ LBD [4]): > 10 µM
- EC50 (RORγ LBD [5]; [13]): > 30 µM
- EC50 (RORγ LBD [5]; [14]): < 30 µM
- EC50 (RORγ LBD [6]; [15]): > 30 µM
- EC50 (RORγ LBD [6]; [16]): < 30 µM
- EC50 (RORα LBD [7]; [17]): > 30 µM
- EC50 (RORα LBD [7]; [18]): > 30 µM
- EC50 (RORα LBD [8]; [19]): > 30 µM
- EC50 (RORα LBD [8]; [20]): > 30 µM

Structure (SMILES): CS(=O)(=O)Nc1ccc2c(c1)CCC(=O)N2Cc1ccc(C(O)(C(F)(F)F)C(F)(F)F)cc1 [Example 6, N-(1-(4-(1,1,1,3,3,3-hexafluoro-2-hydroxypropan-2-yl)benzyl)-2-oxo-1,2,3,4-tetrahydroquinolin-6-yl)methanesulfonamide]
- IC50 (IL-17A [1]): < 10 µM
- IC50 (IL-17F [2]): < 10 µM
- IC50 (IL-22 [9]): < 10 µM
- viability [3]: > 80%
- inhibition at 3 µM (TH17 cells): ≤ 50%
- Fold change in mRNA level of compound treated TH17 cells relative to DMSO treated cells IL-17A (IL-17A [10]): A
- Fold change in mRNA level of compound treated TH17 cells relative to DMSO treated cells IL-17F (IL-17F [11]): B
- Fold change in mRNA level of compound treated TH17 cells relative to DMSO treated cells IL-22 (IL-22 [12]): A
- Fold change in mRNA level of compound treated TH17 cells relative to DMSO treated cells IL-21 (IL-21): A
- Fold change in mRNA level of compound treated TH17 cells relative to DMSO treated cells IL-23R (IL-23R): A
- Fold change in mRNA level of compound treated TH17 cells relative to DMSO treated cells FOXP3 (FOXP3): A
- EC50 (RORγ LBD [5]; [13]): > 30 µM
- EC50 (RORγ LBD [5]; [14]): > 30 µM
- EC50 (RORγ LBD [6]; [15]): < 30 µM
- EC50 (RORγ LBD [6]; [16]): > 30 µM
- EC50 (RORα LBD [7]; [17]): < 30 µM
- EC50 (RORα LBD [7]; [18]): < 30 µM
- EC50 (RORα LBD [8]; [19]): > 30 µM
- EC50 (RORα LBD [8]; [20]): > 30 µM

Structure (SMILES): CNC(=O)c1ccc(CN2CCc3cc(NC(C)=O)ccc32)cc1 [Example 12, 4-((5-acetamidoindolin-1-yl)methyl)-N-methylbenzamide]
- IC50 (IL-17A [1]): > 10 µM
- IC50 (IL-17F [2]): > 10 µM
- IC50 (IL-22 [9]): > 10 µM
- viability [3]: > 80%
- inhibition at 3 µM (TH17 cells): ≤ 50%
- EC50 (RORγ LBD [5]; 2 hr, co-activator recruitment (π), read-out: RORγ EC50 D22 2 hr (demonstrates co-activator recruitment)): < 30 µM
- EC50 (RORγ LBD [5]; 20 hr, co-activator recruitment (π), read-out: RORγ EC50 D22 20 hr (demonstrates co-activator recruitment)): < 30 µM
- EC50 (RORγ LBD [6]; [15]): > 30 µM
- EC50 (RORγ LBD [6]; [16]): > 30 µM
- EC50 (RORα LBD [7]; 2 hr, co-activator recruitment (π), read-out: RORα EC50 D22 2 hr (demonstrates co-activator recruitment)): < 30 µM
- EC50 (RORα LBD [7]; 20 hr, co-activator recruitment (π), read-out: RORα EC50 D22 20 hr (demonstrates co-activator recruitment)): < 30 µM
- EC50 (RORα LBD [8]; [19]): > 30 µM
- EC50 (RORα LBD [8]; 20 hr, co-repressor displacement (Ω), read-out: RORα EC50 NCoR1-D2 20 hr (demonstrates co-repressor displacement)): < 30 µM
